According to paper PMC6418270, “The pharmacological and functional characterization of the serotonergic system in Anopheles gambiae and Aedes aegypti: influences on flight and blood-feeding behavior” (Scientific Reports, 2019):
Where a name gives a salt, the structure may show the parent alone.

How the values were obtained:
[1] = test system: octopamine receptor (AGAP000045); assay: Inhibition in HEK-293 cells expressing an octopamine receptor; format: cell-based, Anopheles gambiae
[2] = test system: D1-like dopamine receptors; settings: cited from earlier work
[3] = target: AGAP002229 (Anopheles gambiae, UniProt A7UR33); assay: Fluo-4 calcium assay in CRE-luc2P HEK-293 cells expressing AGAP002229; format: cell-based; settings: antagonist test; receptor not given, taken as both 5-HT2 cell lines
Experimental: A week post-transfection, selective pressure was applied with […] of G418 antibiotic to generate stable lines.
1 × 10^6 cells per well were seeded into a 96-well black all-clear bottom plate and incubated overnight in 10% FBS/90% DMEM at 37 °C with an atmosphere of 5% CO2. The following day, 2X Fluo-4 Direct calcium dye (Molecular Devices LLC, San Jose, CA) was added to each well and incubated in the same conditions for 45 minutes before the assay was completed. At this time, serial dilutions of the test compounds were prepared in a 96-well clear flat bottom plate. […] Fluorescence measurements continued to be recorded for a total of 120 seconds at 2-second intervals. When testing antagonists, cells were treated with the compound prior to determination of fluorescence levels.
(§1) Luminescence and calcium assay data were normalized and fitted with a non-linear least squares regression to generate dose-response curves, EC50 and IC50 values. Unpaired t-tests or Dunnett’s multiple comparisons test were performed accordingly to compare EC50 or IC50 values. Locomotion was measured based on the distance required for flight recovery. Data were compared with the Kruskal-Wallis and Dunnett’s multiple comparison tests after the Kolmogorov-Smirnov normality test was conducted. In the blood-feeding experiments, the percentage of blood-fed mosquitoes was calculated for each treatment group. For each biological replicate, the treatment groups were normalized with respect to the untreated group. Dunnett’s multiple comparison tests were utilized to determine statistical difference between normalized data. Size of bloodmeals were compared with an unpaired t-test or Mann-Whitney test after normality was evaluated with the Kolmogorov-Smirnov test. All analyses were performed utilizing GraphPad Prism version 7.00 for Mac OS X, GraphPad Software, La Jolla California USA, www.graphpad.com.

[4] = test system: D. melanogaster larvae; set-up: method as in PMID 23817146; settings: cited from earlier work
[5] = test system: Ae. aegypti; assay: Flight performance in flight cylinder after microinjection; format: in vivo, Aedes aegypti; settings: for Average distance dropped before landing on flight cylinder: Fig. 5b; for Distance average in flight cylinder: Fig. 5d
Experimental: (§2) Stock solutions of the compounds were diluted to the appropriate concentrations in 1X phosphate buffer solution (PBS). To account for potential solvent effects, an ultrapure H2O control group was included in every independent experiment. Female mosquitoes were either cold- or CO2-anesthetized. A Nanoject II Auto-Nanoliter Injector (Drummond Scientific Company, Broomall, PA) was then utilized to microinject 69 nL of compound into the spiracle.
A flight cylinder was assembled as described previously. The polyacrylamide sheet was coated with Tangle-Trap Sticky Coating (The Scotts Company LLC, Marysville, OH) and allowed to sit overnight before insertion into the flight cylinder. Adult mosquitoes were anesthetized on a CO2 pad and microinjected with the compound or ultrapure H2O control. Post-injection, they were permitted to recover in a fly vial for 30 minutes before being ejected into the flight cylinder. After each trial, the distance between the top of the cylinder and the trapped mosquito was recorded. Mosquitoes captured in the fly vial at the bottom of the cylinder were considered to be incapable of flying and a distance of 91.5 cm was recorded.
as §1

[6] = target: AGAP002232 (Anopheles gambiae, UniProt A0A1S4GEY1); assay: Fluo-4 calcium assay in CRE-luc2P HEK-293 cells expressing AGAP002232; format: cell-based
Experimental: The GloResponse™ CRE-luc2P human embryonic kidney (HEK-293) reporter cells were incubated at 37 °C with an atmosphere of 5% CO2, and maintained in Dulbecco’s Modified Eagle Medium (DMEM) supplemented with 10% fetal bovine serum (FBS) and […] hygromycin B. Transfection of the HEK-293 cells with 1 μg of plasmid DNA was performed with Amaxa Nucleofector™ technology (Lonza, Basel, Switzerland) as per manufacturer’s instructions. A week post-transfection, selective pressure was applied with […] of G418 antibiotic to generate stable lines.
1 × 10^6 cells per well were seeded into a 96-well black all-clear bottom plate and incubated overnight in 10% FBS/90% DMEM at 37 °C with an atmosphere of 5% CO2. The following day, 2X Fluo-4 Direct calcium dye (Molecular Devices LLC, San Jose, CA) was added to each well and incubated in the same conditions for 45 minutes before the assay was completed. At this time, serial dilutions of the test compounds were prepared in a 96-well clear flat bottom plate. Fluorescence levels were determined with a FlexStation3 microplate reader, with excitation and emission wavelengths set to 485 and 525 nm, respectively (Molecular Devices LLC). Basal fluorescence levels were measured for 17 seconds, at which time, 25 μl of the agonist compound was added. Fluorescence measurements continued to be recorded for a total of 120 seconds at 2-second intervals. When testing antagonists, cells were treated with the compound prior to determination of fluorescence levels.
as §1

[7] = test system: Ae. aegypti; assay: Blood-feeding assay (artificial membrane feeder) after microinjection; format: in vivo, Aedes aegypti; settings: 1 mM microinjected
Experimental: as §2
Seven to ten-day old female mosquitoes were treated with compound or appropriate control through microinjection post cold-anesthetization or ingestion. Two mL of human O^+ blood (BioChemed Services, Winchester, VA) was utilized to cover the concave surface of an inverted baby food jar. Hog intestine sealed the opening to simulate the puncturing of a host’s skin. The feeding membrane was placed on the top of a mosquito cage, and hot water was poured into the jar to warm the blood. After a 45-minute feed, the mosquitoes were immediately preserved at −20 °C. The blood meal size was determined for each mosquito via hemoglobinometry as previously described.
as §1

[8] = test system: D. melanogaster; set-up: method as in PMID 26989517, PMID 24586928; settings: larval and adult; cited from earlier work

AGAP002232, sequence (A0A1S4GEY1 entry or part of it): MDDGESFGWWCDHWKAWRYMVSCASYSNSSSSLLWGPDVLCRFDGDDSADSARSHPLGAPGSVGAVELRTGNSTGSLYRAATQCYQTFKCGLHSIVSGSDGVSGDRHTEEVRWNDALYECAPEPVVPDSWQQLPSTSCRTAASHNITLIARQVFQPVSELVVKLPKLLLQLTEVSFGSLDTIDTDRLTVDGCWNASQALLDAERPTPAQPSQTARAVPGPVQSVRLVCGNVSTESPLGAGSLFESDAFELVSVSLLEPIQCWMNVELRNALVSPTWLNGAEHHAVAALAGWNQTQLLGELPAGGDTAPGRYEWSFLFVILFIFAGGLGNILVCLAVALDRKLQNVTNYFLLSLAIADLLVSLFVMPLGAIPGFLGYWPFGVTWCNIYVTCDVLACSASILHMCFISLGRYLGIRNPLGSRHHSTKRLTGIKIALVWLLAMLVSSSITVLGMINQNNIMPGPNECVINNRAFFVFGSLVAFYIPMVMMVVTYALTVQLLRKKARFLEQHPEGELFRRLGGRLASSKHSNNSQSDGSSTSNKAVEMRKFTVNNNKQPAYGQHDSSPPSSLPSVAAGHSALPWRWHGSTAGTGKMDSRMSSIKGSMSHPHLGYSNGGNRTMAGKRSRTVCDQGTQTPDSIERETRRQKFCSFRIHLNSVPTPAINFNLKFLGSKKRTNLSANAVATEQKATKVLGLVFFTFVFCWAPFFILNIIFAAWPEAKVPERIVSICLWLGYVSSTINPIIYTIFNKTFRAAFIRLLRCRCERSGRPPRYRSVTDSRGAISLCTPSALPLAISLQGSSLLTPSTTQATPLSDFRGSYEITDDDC
AGAP002229, sequence (A7UR33 entry or part of it): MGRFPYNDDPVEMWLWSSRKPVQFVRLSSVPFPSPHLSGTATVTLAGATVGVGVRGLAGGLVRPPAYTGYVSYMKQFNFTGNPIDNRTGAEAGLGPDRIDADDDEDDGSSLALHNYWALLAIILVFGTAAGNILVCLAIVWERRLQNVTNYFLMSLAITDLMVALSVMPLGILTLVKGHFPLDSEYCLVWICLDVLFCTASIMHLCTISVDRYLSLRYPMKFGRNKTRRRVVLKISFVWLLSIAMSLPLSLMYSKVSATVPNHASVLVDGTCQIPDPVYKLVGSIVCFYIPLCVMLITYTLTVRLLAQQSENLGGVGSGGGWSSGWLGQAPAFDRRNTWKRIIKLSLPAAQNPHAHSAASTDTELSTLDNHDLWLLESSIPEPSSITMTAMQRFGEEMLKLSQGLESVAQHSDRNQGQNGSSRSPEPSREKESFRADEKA

Row | Compound | Inhibitory effect on octopamine receptor ([1]; 10^−4 M) | Inhibitory effect on octopamine receptor ([1]; all other concentrations of the range 10^−10 to 10^−4 M) | Inhibition of D1-like dopamine receptors [2] | Ability to inhibit activity in a dose-response manner [3] | Effect on feeding [4] | Successful flights ([5]; 1 mM microinjected (69 nL)) | Average distance dropped before landing on flight cylinder ([5]; 1 mM) | Successful flights ([5]; 1.5 mM microinjected (69 nL)) | Average distance dropped before landing on flight cylinder ([5]; 1.5 mM) | Average distance in flight cylinder ([5]; 1.5 mM, Fig. 5c) | Successful flights ([5]; 2.5 mM microinjected (69 nL)) | Average distance dropped before landing on flight cylinder ([5]; 2.5 mM) | Ability to inhibit activity in a dose-response manner ([6]; antagonist test, receptor not given, taken as both 5-HT2 cell lines) | IC50 ([6]; read-out: IC50 (calcium response to 5-HT), AGAP002232 HEK-293 cells) | Lowest concentration exhibiting inhibitory effects ([6]; receptor not given) | Blood meal size [7] | Successfully blood-fed, normalized to the untreated group [7] | Effect on locomotion [8] | Distance average in flight cylinder ([5]; 2.5 mM) | Distance average in flight cylinder ([5]; 4 mM)
1 | CS(=O)(=O)O.CSc1ccc2c(c1)C(N1CCN(C)CC1)Cc1ccccc1S2 (stereo not drawn) [methiothepin, methiothepin mesylate salt] | marked inhibition | did not elicit a similar result | ability to inhibit D1-like dopamine receptors | exhibited the ability to inhibit activity in a dose-response manner | anorectic agent | 92% | 22.77 cm | 84% | 33.04 cm | 41.38 cm | 61% | 49.27 cm | exhibited the ability to inhibit activity in a dose-response manner | 560 pM | 10^−16 M | 2.25 µL | 50.7% | – | – | –
2 | CNCCC(Oc1ccc(C(F)(F)F)cc1)c1ccccc1 (stereo not drawn) [fluoxetine, fluoxetine hydrochloride] | – | – | – | – | – | – | – | – | – | – | – | – | – | – | – | – | approximately 80% | repress locomotion | 41.61 cm | 81.63 cm
